The record followed here is patent US9630964B2, “Fluoro-9-methyl-β-carbolines” (priority 2013, dated 2017).

≈ marks a conversion by molar mass, not a printed value.

In series [1] the test system is DKK1 (Dickkopf-related protein 1). Description: Quantitative RT-PCR, relative gene expression of DKK1 in SH-SY5Y cells. Format: cell-based, human. The note with it: 30 μM each. The method, then: (§1) SH-SY5Y cell lines, which were provided by the institute of human genetics of university hospital Eppendorf and which they in turn received from Braunschweig resource center, were used again for the RT-PCR experiments (reverse transcriptase polymerase chain reaction) carried out for this purpose.
(§2) The cells were incubated in MEM (Minimum essential medium, Life Technologies) with 10% FCS (fetal calf serum, Biochrom AG) and penicillin/streptomycin (Biochrom AG). The cells were seeded with a density of 1×10^5 cells/cm^2 in 25 cm^2 cell culture bottles (Falcon, cell culture treated) with 5 mL medium. Stock solutions of 10 mmol/L of compounds 9-methyl-β-carboline (AC-002 or 9MβC) and 6-fluoro-9-methyl-β-carboline (AC-102 or 6F9MβC), respectively were prepared in distillated water and sterile filtered. One day after the cell seeding the compounds were added in corresponding amounts (5-55 μL) to reach final concentration in the medium of 10 μM, 20 μM and 30 μM for 6F9MβC and 30 μM, 50 μM and 70 μM for 9MβC. The references received only the corresponding amount of solvent (distilled water). The medium was changed once a week.
(§3) The cells were regularly microscopically examined and harvest after 2, 7 and 14 days of incubation time, washed with PBS and immediately frozen at −80° C.
(§4) The RNA-isolation was done with the HighPure RNA Isolation kit of the company Roche. This isolation includes a DNaseI digestion. The concentration of RNA was measured with nanoDrop spectrometer and the RNA integrity was determined with the aid of the Bioanalyzer 2100 (Agilent). By using random hexamer primers, protector RNA inhibitor (Roche) and transcriptor reverse transcriptase (fermentas), 300 ng RNA were transcribed into cDNA per each sample.
(§5) After the reaction, this run was diluted 1:4 and thereof 2 μL per each quantitative RT-PCR were used. This was performed in a LightCycler 480 under standard conditions in the SybrGreen format with annealing temperatures determined for each primer individually. If possible, exon spanning primers were used.
(§6) The specificity was verified by melting curve analysis and subsequent gel electrophoresis. For each PCR the PCR efficiency and the Cq value was determined by the program LinRegPCR and these were used in further calculations. B2M (β2-microglobulin) was identified from multiple reference genes to be suitable for examination conditions. All results are results relative to the corresponding reference conditions, at which only solvent was administered for the specified period of time (i.e. 2 days, 7 days or 14 days). In FIGS. 5A to 5I are also relative gene expressions (relative to reference conditions) presented. Here, the 2-day exposition is presented in light grey, the 7-day exposition in dark grey and the 14-day exposition in black. Every measured value from FIGS. 5A-5I represents a mean value of 3 independent biologic samples.
Analogous to example 4 RT-PCR experiments with the inventive active agent 7-fluoro-9-methyl-β-carboline (7F9MβC) were also performed for some important cellular factors. The experimental procedure was here identical to the experiments with 6-fluoro-9-methyl-β-carboline and 9-methyl-β-carboline. Here the same (like for 6F9MβC) final concentrations of 30 μM, 50 μM and 70 μM 7F9MβC for the culture medium were employed. The examined factors were BDNF (brain-derived neurotrophic factor), Lif (Leukemia inhibitory factor), DRD2S (short variant of dopamine receptor subtype 2) as well as DKK1 (Dickkopf-related protein 1). […]

Series [2] concerns BDNF (brain-derived neurotrophic factor). Description: Quantitative RT-PCR, relative gene expression of BDNF in SH-SY5Y cells. It is filed as cell-based, human. The settings on record: 30 μM each. As for the experimental part:
as §1, §2, §3
The RNA-isolation was done with the HighPure RNA Isolation kit of the company Roche. […] The concentration of RNA was measured with nanoDrop spectrometer and the RNA integrity was determined with the aid of the Bioanalyzer 2100 (Agilent). […]
After the reaction, this run was diluted 1:4 and thereof 2 μL per each quantitative RT-PCR were used. This was performed in a LightCycler 480 under standard conditions in the SybrGreen format with annealing temperatures determined for each primer individually. […]
The specificity was verified by melting curve analysis and subsequent gel electrophoresis. For each PCR the PCR efficiency and the Cq value was determined by the program LinRegPCR and these were used in further calculations. […] Every measured value from FIGS. 5A-5I represents a mean value of 3 independent biologic samples. […]

The test system of series [3] is DRD2S (short variant of dopamine receptor subtype 2). Description: Quantitative RT-PCR, relative gene expression of DRD2S in SH-SY5Y cells. The note with it: 30 μM each. It is filed as cell-based, human. As for the experimental part: as §1, §2, §3, §4, §5, §6
(§7) Analogous to example 4 RT-PCR experiments with the inventive active agent 7-fluoro-9-methyl-β-carboline (7F9MβC) were also performed for some important cellular factors. The experimental procedure was here identical to the experiments with 6-fluoro-9-methyl-β-carboline and 9-methyl-β-carboline. Here the same (like for 6F9MβC) final concentrations of 30 μM, 50 μM and 70 μM 7F9MβC for the culture medium were employed. The examined factors were BDNF (brain-derived neurotrophic factor), Lif (Leukemia inhibitory factor), DRD2S (short variant of dopamine receptor subtype 2) as well as DKK1 (Dickkopf-related protein 1). The same primers, that were already listed for the respective target genes in example 4 (Tab. 1) were used. As already noted, especially BDNF and Lif belongs to the most important factors for cellurar repair processes after traumas in the inner ear.

The subject of series [4] is Lif (Leukemia inhibitory factor). The experiment in a line: Quantitative RT-PCR, relative gene expression of Lif in SH-SY5Y cells. It is filed as cell-based, human. The settings on record: 30 μM each. The method, then: as §1, §2, §3, §4, §5, §6, §7
For series [5] the following is noted: guinea pig, in vivo.
Procedure: For better evaluation of half times of 9-methyl-β-carboline (9MβC), 6-fluoro-9-methyl-β-carboline (6F9MβC) and 7-fluoro-9-methyl-β-carboline (7F9MβC) in animal organism and more precisely in perilymph (the notified site of action), experiments with guinea pigs were conducted. Therefore, the respective active agent (in total 1.4 mg active agent per ear), packed in 40 μl of a hydrogel (18% Poloxamer 407 and 0.6% alginate), was administered at once in front of the membrane of the round window of narcotized guinea pigs. […] After expiry of the desired time (20 min, 2 h, 8 h or 24 h), each time 5 μL perilymph were removed under anesthesia from the top of the cochlea (apex). Subsequently, the animal was killed. Per each time (20 min, 2 h, 8 h or 24 h) measured values were taken of at least ears and averaged.
The concentration of the corresponding active agent in perilymph samples was determined by high-performance liquid chromatography (HPLC, partly also named as high-pressure liquid chromatography) and measurement of auto fluorescence of the respective active agent. For HPLC the eluent consisted to 45% of 90% acetonitrile and to 55% of ammonium acetate (40 mM, pH<5). The flow rate was 0.4 mL/min and injection volume was 10 μL. Each sample was diluted with 60% methanol, if the signal was too strong. After each run the injection needle was washed with 100% isopropanol. The detection limit was 20 fmol/L.
From the determined active agent concentrations the elimination half times were then calculated.
For series [6], the system named is outer hair cells (OHC) in the inner ear. The experiment in a line: Immunohistochemical experiments: dying of outer hair cells after acoustic trauma. Format: in vivo. The settings on record: guinea pig, intratympanic, total 0.2 mg per ear, day 14. The method, then: To induce an acoustic trauma, guinea pigs were anesthetized with 60 mg/kg ketamine and 8 mg/kg xylazine. Then Bepanten ointment (Bayer) was administered to the eyes and the animal was put in a soundproof chamber. A calibrated speaker was placed directly above the head of the animal, wherein it was set to emit a half octave band, centered around 8 kHz, with a volume of 110 dB for duration of 30 minutes.
The thermosensitive, liquid mixture was administered under view by a Hamilton syringe directly in front of the round window membrane of the middle ear (10 μL). The first dose 6-fluoro-9-methyl-β-carboline (e.g. 0.07 mg) was administered one hour after the acoustic trauma in a concentration of 0.007 mg/μL and the second dose 6-fluoro-9-methyl-β-carboline (0.035 mg in a volume of 5 μL) on day 3. Here, only one ear per animal was treated, while the second ear served as intra-individual control. The control here is particularly abbreviated to “contr.”. In comparative experiments it was found, that administration of just an active agent vehicle (hydrogel) has no effect in comparison to a fully untreated ear. For each active agent (including the controls) four guinea pigs were examined.
On day 14 after the acoustic trauma the region of the ear was dissected so that it contained the cochlea. […] In this way the sound induced damage can be localized and quantified. […]

The test system of another series is hearing threshold. The experiment in a line: Acoustically evoked potentials: hearing threshold after acoustic trauma. It is filed as in vivo. The settings on record: guinea pig, total 0.35 mg per ear. As for the experimental part: To trigger an acoustic trauma, guinea pigs were anesthetized with 60 mg/kg ketamine and 8 mg/kg xylazine. Then Bepanten ointment (Bayer) was administered to the eyes and the animal was put in a soundproof chamber. A calibrated speaker was placed directly above the head of the animal, wherein it was set to emit a half octave band, centered around 8 kHz, with a volume of 110 dB for duration of 30 minutes.
As measure for evaluation of the hearing threshold of the guinea pig acoustically evoked potentials were measured. Therefore, the electrophysiological activity of the nerve cells in the brain stem that forward impulses from the inner ear was derived after sonication of the ear with 8, 11.3, 16, 22.6 and 32 kHz. The sonification was carried out ascendingly from 0 dB to 90 dB in single steps of 5 dB.
The measurement was carried out 3 days before the acoustic trauma (D-3), 30 minutes after the acoustic trauma (D0) as well as 14 days after the acoustic trauma (D14).
Per animal one ear was not treated and used as intra-individual control (hierin partly abbreviated to “contr.”) and the second ear was treated with 6-fluoro-9-methyl-β-carboline. Therefore, one hour after the acoustic trauma a dose of 0.12 mg 6-fluoro-9-methyl-β-carboline (in a hydrogel as vehicle) was administered intratympanically. 3 days after the acoustic trauma a further intratympanic administration of 0.06 mg 6-fluoro-9-methyl-β-carboline was carried out. The measurements were conducted on four guinea pigs (n=4).
Afterwards, the remaining shift of hearing threshold (also named as permanent shift of hearing threshold) was determined from the measured values before the acoustic trauma (D-3) and after 14 days (D14). From the measured values directly after the acoustic trauma (D0) and after 14 days (D14) the recovery from the trauma (D0-D14) was also determined.
Analogous to the above performed experiments with 6-fluoro-9-methyl-β-carboline, also corresponding experiments with 9-methyl-β-carboline were performed. The experimental procedure was nearly identical, wherein of course 9-methyl-β-carboline instead of 6-fluoro-9-methyl-β-carboline was used. The total dose of 9-methyl-β-carboline was here 0.2 mg and 0.35 mg per ear, respectively.

In series [7] the test system is human neuroblastoma cells (SH-SY5Y). Description: Differentiation of human neuroblastoma cells (SH-SY5Y), morphological examination. Format: cell-based. The method, then: The SH-SY5Y cell line was obtained from the German collection of microorganisms and cell cultures—DSMZ, Braunschweig. The cells were cultivated in MEM (Minimum essential medium, Life Technologies) with 10% FCS (fetal calf serum, Biochrom AG) and penicillin/streptomycin (Biochrom AG). For morphological examinations the cells were seeded in a density of 1.5×10^4 cells/cm^2 in 24-well plates (Falcon, cell culture treated) with 1 mL medium. A stock solution of 10 mmol/L of the compound according to the invention 6-fluoro-9-methyl-β-carboline was prepared in 50% ethanol and sterile filtered. Five hours after seeding of the cells the compound according to the invention 6-fluoro-9-methyl-β-carboline was added in the corresponding amount to the medium achieving the desired final concentration. The medium was changed once a week. The cells were regularly microscopically examined. Microscopic images were taken at BZ Keyence 10 with a 10×lens and 4×digital zoom. An automatic contrast enhancement was made with the program BZ Analyzer.

The nature of another series: physchem. The settings on record: water.

Procedure for physchem: Furthermore, the solubility of both compounds in water was determined by preparing concentration series of both compounds in water at room temperature. The concentration at which the compound was barely soluble was determined by external calibration. The corresponding concentration was quantified by HPLC.

For `Cn1c2cnccc2c2ccc(F)cc21` [7F9MβC, 7-fluoro-9-methyl-β-carboline], the “DKK1 expression relative to expression induced by 9MβC” value is reported as 1.4 times in series [1] (2-day exposition), “comparable” in [1] (7-day exposition) and 2.2 times in [1] (14-day exposition). Further, the “BDNF expression relative to expression induced by 9MβC” value in [2] (2-day exposition) is “approximately three times higher”; in [2] (longer expositions (7 and 14 days)), “comparable”. In addition, the “DRD2S expression relative to expression induced by 9MβC” value in [3] (2-day exposition) is given as “twice as high”; in series [3] (7-day exposition) it was “comparable”; in [3] (14-day exposition), “slightly weaker”. The “Lif expression relative to expression induced by 9MβC” value is given as “approximately three times higher” in series [4] (2-day exposition), “weaker” in series [4] (7-day exposition) and “comparable” in series [4] (14-day exposition). In series [5], the elimination half time entry was “approximately 5.0 h”.

Regarding `Cn1c2ccccc2c2ccncc21` [9MβC, 9-methyl-β-carboline], the “acoustic trauma-induced dying of outer hair cells” value in [6] is “could counteract the dying of outer hair cells”. In addition, the “improvement of the recovery of hearing threshold (D1-D14) vs untreated control” value with hearing threshold is reported as “about 10 dB”. In addition, the “neurite growth as indication of differentiation” value in series [7] (50 μM, compared to 30 μM 6-fluoro-9-methyl-β-carboline) is listed as “too low neurite growth”. Also, in [7] (SH-SY5Y, 15 days incubation), the “concentration at which a comparable differentiation of the tested cells is observed” value is recorded as “approximately 70 μM”. The same compound registered a solubility in “physchem” of 168 µg/mL (≈ 924 µM). In addition, the elimination half time entry in series [5] was “approximately 3.4 h”.

The term solubility denotes the dissolved amount per volume that the medium holds. A lower solubility goes with little dissolved substance.
